System: CTx-induced fluid secretion in the mouse intestine
Experiment: Cholera-toxin induced closed-loop mouse diarrheal model, individual polyphenols and their combination
Type: in vivo
Conditions: for Concentration that did not have any effect on the CTx-induced fluid secretion: individual compound, CTx 1 μg per loop; for Effect on fluid accumulation elicited by CTx: individual polyphenols, dose-dependent
Method: Following identification, individual reagents of cyanidin, delphinidin, epicatechin gallate and epigallocatechin gallate were acquired from ChromaDex (Chromadex, Irvine, Calif., USA) and tested in the same cholera-toxin induced closed-loop mouse diarrheal model described above. We sought and resolved the IC^50 concentration of each individual component as relevant for the treatment of cholera-toxin induced intestinal secretion.
Mice (19-35 g) were fasted for 24-48 h, weighed and anesthetized with Avertin Sigma-Aldrich, St. Louise, Mo., USA) (250 mg/kg IP induction dose f.b. 2.6 mg IP every 30-45 minutes as needed for maintenance of anesthesia). Body temperature was maintained at 37-38° C. using a heating pad.
Abdomen was opened. Small, and part of the large intestine were identified. 2-4 cm loops were ligated in the proximal jejunum beginning immediately downstream of Treitz ligament. Loops were separated by 1-2 cm of intervening small intestine. After ligation, one loop was injected with 100 μl of PBS, second loop was injected with CTx solution (Cayman chemicals, 1 μg in 100 μl PBS and third loop was injected with CTx and polyphenol solution (Chromadex, Irvine, Calif., USA) in 100 μl of PBS. Injected loops were photographed and carefully placed back into the abdominal cavity and then abdomen was closed with two sutures. After 4 to 6-hour incubation, animal was euthanized and entire length of small intestine, cecum and ascending transverse colon were removed as a single prep. Loops were excised, trimmed of fat, measured and weighted. Mice were euthanized by cervical dislocation or an overdose injection of Avertin. All animal protocols were approved by the Laboratory Animal Ethical Committee of Vanessa Research Inc. The loop weight/length ratio was calculated.
Flavan-3-ols and gallotannins stock solutions (stock dilutions (stored at −20 C)) and working dilutions (PBS) were designated and prepared as follows:
F1A—Cyanidin chloride (Chromadex, ASB-00003955-005 Lot #00003955-041) 5 mg dissolved in 1 ml methanol (Sigma-Aldrich, Saint Louise, Mo., USA) to 5 mg/ml stock. Original concentration used in experiments 0.05 mg/ml. Serial dilutions from 1:10 to 1:100,000 with increments of 1:10 were prepared for experiments.
F1B—Delphinidin chloride (Chromadex, ASB-00004125-001 Lot #00004125-504) 1 mg dissolved in 143 ul methanol to 7 mg/ml stock. Original concentration used in experiments 0.07 mg/ml. Serial dilutions from 1:10 to 1:100,000 with increments of 1:10 were prepared for experiments.
F1C—Epicatechin gallate (Chromadex, ASB-00005135-005 Lot #00005135-523) 5 mg dissolved in 1 ml methanol to 5 mg/ml stock. Original concentration used in experiments […] (1:50 dilution of 5 mg/ml stock). Serial dilutions from 1:10 to 1:100,000 with increments of 1:10 were prepared for experiments.
F1D—Epigallocatechin gallate (Chromadex, ASB-00005150-005 Lot #00005150-008) 5 mg dissolved in 1 ml methanol to 5 mg/ml stock. Original concentration used in experiments […] (1:33.4 of 5 mg/ml stock). Serial dilutions from 1:10 to 1:100,000 with increments of 1:10 were prepared for experiments.
However, in order to confirm or exclude the idea of synergism between multiple polyphenols in exertion of the anti-secretory effect following induction of fluid secretion with CTx, we attempted a treatment with a combination of all 4 polyphenols in the concentrations as indicated in Table 1. The ratio of concentrations (mg/ml) of individual members (cyaniding:delphinidin:epicatechin gallate:epigallocatechin gallate) in the combination was derived from Table 1 as 500:70:1:150 (weight ratio) accordingly.
Data analysis was done as follows: The formula was used as adapted from Yamamoto K., 1979:
Mass accumulation=Tm−(Cm/CL)×TL
After determining fluid accumulation in treated and untreated samples, a percent reduction in mass was performed using the mass obtained from the previous formula
5. The certain variables were removed based on the Exclusion Criteria for Data: […]

SMILES: Oc1cc(O)c2cc(O)c(-c3ccc(O)c(O)c3)[o+]c2c1.[Cl-] [F1A, Cyanidin chloride]
- Concentration that did not have any effect on the CTx-induced fluid secretion: 5e-06 mg/mL
- Effect on fluid accumulation elicited by CTx: significantly reduced fluid accumulation

SMILES: O=C(O[C@@H]1Cc2c(O)cc(O)cc2O[C@@H]1c1cc(O)c(O)c(O)c1)c1cc(O)c(O)c(O)c1 [F1D, Epigallocatechin gallate]
- Concentration that did not have any effect on the CTx-induced fluid secretion: 1e-06 mg/mL
- Effect on fluid accumulation elicited by CTx: significantly reduced fluid accumulation

SMILES: Oc1cc(O)c2cc(O)c(-c3cc(O)c(O)c(O)c3)[o+]c2c1 [F1B, Delphinidin chloride]
- Concentration that did not have any effect on the CTx-induced fluid secretion: 7e-08 mg/mL
- Effect on fluid accumulation elicited by CTx: significantly reduced fluid accumulation

SMILES: O=C(O[C@@H]1Cc2c(O)cc(O)cc2O[C@@H]1c1ccc(O)c(O)c1)c1cc(O)c(O)c(O)c1 [F1C, Epicatechin gallate]
- Concentration that did not have any effect on the CTx-induced fluid secretion: 1e-08 mg/mL
- Effect on fluid accumulation elicited by CTx: significantly reduced fluid accumulation
